# Results taken from patent publication US8354455B2, “Prodrugs containing novel bio-cleavable linkers” (Piramal Enterprises Limited and Apparao Satyam, priority 2004, dated 2013).
# Like-named read-outs stand apart in the source and are kept apart here. Marks after values point to notes of the source that are not given here.
# Experiments:
# [1] = both, Sprague-Dawley, rat, in vivo, po, 35 mg/kg
# rats [2] = conditions: rat, in vivo, po, 100 mg/kg
# [3] = test system: carrageenan-induced rat paw edema; test: Carrageenan-induced rat paw edema; type: in vivo; conditions: 75 mg/kg equivalent dose of aspirin, p.o.
# [4] = In vitro plasma stability; type: in vitro ADME; conditions: rat plasma, 37° C., 30 minutes incubation, HPLC
# Description: The compounds were extracted back into acetonitrile with rigorous vortex.
# mice = conditions: for toxicity (in words): Test 1, mice i.p.; for Rotorod Toxicity 0.5 h / Rotorod Toxicity 4.0 h: mice, i.p., symbol = dose with toxicity
# MES-induced seizures [5] = test: Maximal Electroshock Test (MES), Test 1, mice i.p.; type: in vivo; conditions: for activity in MES model (in words): Test 1, mice i.p.
# MES-induced seizures [6] = test: animal or person; type: in vivo, rats; conditions: for ED50: Rattus norvegicus, po, MES model, at time of peak effect
# convulsant metrazol [7] = test: scMET, rats p.o. (Test 3); type: in vivo; conditions: Test 3, rats p.o.
# Experimental: Subcutaneous Metrazol Seizure Threshold Test (scMET): Subcutaneous injection of the convulsant metrazol produces clonic seizures in laboratory animals. […] Animals were pretreated with various doses of the test compound given by i.p. injection. At the previously determined Time to Peak Effect (TPE) of the test compound, the dose of metrazol which will produce convulsions in 97% of animals (CD97: 85 mg/kg in mice) was injected into a loose fold of skin in the midline of the neck. The animals were placed in isolation cages to minimize stress and observed for the next 30 minutes for the presence or absence of a seizure. An episode of clonic spasms, approximately […], of the fore and/or hind limbs, jaws, or vibrissae is taken as the end point.
# Rats received test compounds orally.
# rats [8] = test: Neurotoxicity, rats p.o. (Test 2 and Test 3)
# Description: Acute Toxicity—Minimal Motor Impairment (MMI): To assess a compound's undesirable side effects (toxicity), animals were monitored for overt signs of impaired neurological or muscular function.
# Groups of at least 8 rats received various doses of the candidate compound until at least two points were established between the limits of 100 percent protection or toxicity and zero percent protection or minimal toxicity. The 95 percent confidence limits, slopes of the regression lines and standard errors of the slopes were calculated for each quantitative determination. Rats received test compounds orally.
# This secondary evaluation determines the time to peak effect (TPE), neurotoxicity, median effective dose (ED50) and biological response.
# convulsant metrazol [9] = test: Subcutaneous Metrazol Seizure Threshold Test (scMET), Test 1, mice i.p.; type: in vivo; conditions: Mus musculus, ip, symbol = dose with activity
# [10] = Test 2, rats p.o., 30 mg/kg, 0.50 h
# [11] = Test 2, rats p.o., 30 mg/kg, 1.00 h
# [12] = Test 2, rats p.o., 30 mg/kg, 2.00 h
# [13] = Test 2, rats p.o., 30 mg/kg, 4.00 h
# [14] = Test 3 time to peak effect, rats p.o., 30 mg/kg, 0.5 h
# [15] = Test 3 time to peak effect, rats p.o., 30 mg/kg, 1.0 h
# [16] = Test 3 time to peak effect, rats p.o., 30 mg/kg, 2.0 h
# [17] = Test 3 time to peak effect, rats p.o., 30 mg/kg, 4.0 h
# [18] = 0.5 h, read-out: ScMET 0.5 h, mice, i.p., 0.5 h
# [19] = 4 h, read-out: ScMET 4.0 h, mice, i.p., 4.0 h
smiles,measurement,setting,value
"CC(=O)Oc1ccccc1C(=O)O [Aspirin, reference compound]",salicylate release / absorption profile (in words),[1],highest during 0.5-6.0 hrs
same,ulcers (in words),rats [2],severe haemorrhagic lesions
same,anti-inflammatory activity (in words),[3],anti-inflammatory activity from 1 hr through 6 hr with peak maximal activity at 4 hr
same,Rat paw edema (% inhibition) 1 hour,"[3]; Mean ± SEM, n = 6",31.0 ± 7.2%
same,Rat paw edema (% inhibition) 2 hour,"[3]; Mean ± SEM, n = 6",52.5 ± 3.4%
same,Rat paw edema (% inhibition) 4 hour,"[3]; Mean ± SEM, n = 6",60.7 ± 6.9%
same,Rat paw edema (% inhibition) 6 hour,"[3]; Mean ± SEM, n = 6",42.8 ± 6.9%
same,release of parent drug / conversion to salicylate (in words),[4],completely metabolized to salicylate
Nc1nc(NC(=O)OCCSSCCO)nnc1-c1cccc(Cl)c1Cl [I-A1-PD4],toxicity (in words),mice,no or mild toxicity
same,Rotorod Toxicity 0.5 h,mice,— (— = no activity or no toxicity at 300 mg/kg)
same,Rotorod Toxicity 4.0 h,mice,— (— = no activity or no toxicity at 300 mg/kg)
same,activity in MES model (in words),MES-induced seizures [5],active in MES
same,MES (number of animal protected/number of animal tested),"MES-induced seizures [5]; mice, i.p., 0.5 h, 100 mg/kg (++)",(1/7)
same,MES (number of animal protected/number of animal tested),"MES-induced seizures [5]; mice, i.p., 0.5 h, 300 mg/kg (+)",(2/5)
same,MES (number of animal protected/number of animal tested),"MES-induced seizures [5]; mice, i.p., 4.0 h, 30 mg/kg (+++)",(1/1)
same,MES (number of animal protected/number of animal tested),"MES-induced seizures [5]; mice, i.p., 4.0 h, 100 mg/kg (++)",(3/3)
same,MES (number of animal protected/number of animal tested),"MES-induced seizures [5]; mice, i.p., 4.0 h, 300 mg/kg (+)",(1/1)
same,ED50,MES-induced seizures [6]; rats p.o.,6.55 mg/kg
same,MES (number of animal protected/number of animal tested),MES-induced seizures [6]; [10],0/4
same,MES (number of animal protected/number of animal tested),MES-induced seizures [6]; [11],1/4
same,MES (number of animal protected/number of animal tested),MES-induced seizures [6]; [12],3/4
same,MES (number of animal protected/number of animal tested),MES-induced seizures [6]; [13],4/4
same,MES (number of animal protected/number of animal tested),"MES-induced seizures [6]; Test 3 ED50 quantification, rats p.o., 4 h, 1.9 mg/kg",0/8
same,MES (number of animal protected/number of animal tested),"MES-induced seizures [6]; Test 3 ED50 quantification, rats p.o., 4 h, 3.8 mg/kg",4/8
same,MES (number of animal protected/number of animal tested),"MES-induced seizures [6]; Test 3 ED50 quantification, rats p.o., 4 h, 7.5 mg/kg",4/8
same,MES (number of animal protected/number of animal tested),"MES-induced seizures [6]; Test 3 ED50 quantification, rats p.o., 4 h, 15 mg/kg",7/8
same,MES (number of animal protected/number of animal tested),"MES-induced seizures [6]; Test 3 ED50 quantification, rats p.o., 4 h, 30 mg/kg",7/8
same,MES (number of animal protected/number of animal tested),"MES-induced seizures [6]; Test 3 time to peak effect, rats p.o., 10 mg/kg, 4.0 h",4/4
same,MES (number of animal protected/number of animal tested),"MES-induced seizures [6]; Test 3 time to peak effect, rats p.o., 10 mg/kg, 6.0 h",3/4
same,MES (number of animal protected/number of animal tested),"MES-induced seizures [6]; Test 3 time to peak effect, rats p.o., 10 mg/kg, 8.0 h",2/4
same,MES (number of animal protected/number of animal tested),"MES-induced seizures [6]; Test 3 time to peak effect, rats p.o., 10 mg/kg, 24 h",0/4
same,MES (number of animal protected/number of animal tested),"MES-induced seizures [6]; Test 3 time to peak effect, rats p.o., 30 mg/kg, 0.25 h",2/4
same,MES (number of animal protected/number of animal tested),MES-induced seizures [6]; [14],2/4
same,MES (number of animal protected/number of animal tested),MES-induced seizures [6]; [15],2/4
same,MES (number of animal protected/number of animal tested),MES-induced seizures [6]; [16],2/4
same,MES (number of animal protected/number of animal tested),MES-induced seizures [6]; [17],4/4
same,ScMET (50 mg/kg) (number of animal protected/number of animal tested),convulsant metrazol [7]; 0.25 h,1/4^f
same,ScMET (50 mg/kg) (number of animal protected/number of animal tested),convulsant metrazol [7]; 0.5 h,0/4
same,ScMET (50 mg/kg) (number of animal protected/number of animal tested),convulsant metrazol [7]; 1.0 h,2/4
same,ScMET (50 mg/kg) (number of animal protected/number of animal tested),convulsant metrazol [7]; 2.0 h,1/4^g
same,ScMET (50 mg/kg) (number of animal protected/number of animal tested),convulsant metrazol [7]; 4.0 h,0/4
same,Toxicity (number of animals exhibiting toxicity/number of animals tested),rats [8]; [10],0/4
same,Toxicity (number of animals exhibiting toxicity/number of animals tested),rats [8]; [11],0/4
same,Toxicity (number of animals exhibiting toxicity/number of animals tested),rats [8]; [12],0/4
same,Toxicity (number of animals exhibiting toxicity/number of animals tested),rats [8]; [13],0/4
same,Toxicity (number of animals exhibiting toxicity/number of animals tested),"rats [8]; Test 3, rats p.o., 100 mg/kg, 0.25 h",0/4 (100)
same,Toxicity (number of animals exhibiting toxicity/number of animals tested),"rats [8]; Test 3, rats p.o., 100 mg/kg, 0.5 h",0/4 (100)
same,Toxicity (number of animals exhibiting toxicity/number of animals tested),"rats [8]; Test 3, rats p.o., 100 mg/kg, 1.0 h",0/4 (100)
same,Toxicity (number of animals exhibiting toxicity/number of animals tested),"rats [8]; Test 3, rats p.o., 100 mg/kg, 2.0 h",0/4 (100)
same,minimal effective dose,convulsant metrazol [9]; [18],> 300 mg/kg
same,minimal effective dose,convulsant metrazol [9]; [19],> 300 mg/kg
CCOC(=O)CC1(CNC(=O)OCCSSCCOC(=O)Nc2nnc(-c3cccc(Cl)c3Cl)c(N)n2)CCCCC1 [I-AA-MPD12],toxicity (in words),mice,no or mild toxicity
same,Rotorod Toxicity 0.5 h,mice,— (— = no activity or no toxicity at 300 mg/kg)
same,Rotorod Toxicity 4.0 h,mice,— (— = no activity or no toxicity at 300 mg/kg)
same,minimal effective dose,"MES-induced seizures [5]; Mus musculus, ip, 0.5 h, read-out: MES 0.5 h, mice, i.p., 0.5 h, symbol = dose with activity",> 300 mg/kg
same,activity in MES model (in words),MES-induced seizures [5],active in MES
same,"MES, at 6 hours after dosing","MES-induced seizures [5]; mice, i.p., 6 h (footnotes g, m; printed in 4.0 h column)",++ (++ = activity or toxicity at 100 mg/kg)
same,ED50,MES-induced seizures [6]; rats p.o.,17.1 mg/kg
same,MES (number of animal protected/number of animal tested),MES-induced seizures [6]; [11],0/4
same,MES (number of animal protected/number of animal tested),"MES-induced seizures [6]; Test 3 ED50 quantification, rats p.o., 6 h, 60 mg/kg",7/8
same,MES (number of animal protected/number of animal tested),"MES-induced seizures [6]; Test 3 time to peak effect, rats p.o., 15 mg/kg, 8.0 h",1/4
same,MES (number of animal protected/number of animal tested),MES-induced seizures [6]; [14],0/4
same,MES (number of animal protected/number of animal tested),MES-induced seizures [6]; [15],0/4
same,MES (number of animal protected/number of animal tested),MES-induced seizures [6]; [16],1/4
same,MES (number of animal protected/number of animal tested),MES-induced seizures [6]; [17],3/4
same,MES (number of animal protected/number of animal tested),"MES-induced seizures [6]; Test 3 time to peak effect, rats p.o., 30 mg/kg, 8.0 h",4/4
same,MES (number of animal protected/number of animal tested),"MES-induced seizures [6]; Test 3 time to peak effect, rats p.o., 30 mg/kg, 24 h",2/4
same,ScMET (50 mg/kg) (number of animal protected/number of animal tested),convulsant metrazol [7]; 1.0 h,1/4
same,ScMET (50 mg/kg) (number of animal protected/number of animal tested),convulsant metrazol [7]; 2.0 h,0/4
same,ScMET (50 mg/kg) (number of animal protected/number of animal tested),convulsant metrazol [7]; 4.0 h,0/4
same,ScMET (50 mg/kg) (number of animal protected/number of animal tested),convulsant metrazol [7]; 6.0 h,1/4
same,ScMET (50 mg/kg) (number of animal protected/number of animal tested),convulsant metrazol [7]; 8.0 h,2/4
same,ScMET (50 mg/kg) (number of animal protected/number of animal tested),convulsant metrazol [7]; 24 h,0/4
same,Toxicity (number of animals exhibiting toxicity/number of animals tested),rats [8]; [11],0/4
same,Toxicity (number of animals exhibiting toxicity/number of animals tested),rats [8]; [12],0/4
same,Toxicity (number of animals exhibiting toxicity/number of animals tested),rats [8]; [13],0/4
same,Toxicity (number of animals exhibiting toxicity/number of animals tested),"rats [8]; Test 3, rats p.o., 50 mg/kg, 1.0 h",0/4 (50)
same,Toxicity (number of animals exhibiting toxicity/number of animals tested),"rats [8]; Test 3, rats p.o., 50 mg/kg, 2.0 h",0/4 (50)
same,Toxicity (number of animals exhibiting toxicity/number of animals tested),"rats [8]; Test 3, rats p.o., 50 mg/kg, 4.0 h",0/4 (50)
same,Toxicity (number of animals exhibiting toxicity/number of animals tested),"rats [8]; Test 3, rats p.o., 50 mg/kg, 6.0 h",0/4 (50)
same,Toxicity (number of animals exhibiting toxicity/number of animals tested),"rats [8]; Test 3, rats p.o., 50 mg/kg, 8.0 h",0/4 (50)
same,Toxicity (number of animals exhibiting toxicity/number of animals tested),"rats [8]; Test 3, rats p.o., 50 mg/kg, 24 h",0/4 (50)
same,minimal effective dose,convulsant metrazol [9]; [18],> 300 mg/kg
same,minimal effective dose,convulsant metrazol [9]; [19],> 300 mg/kg
